Calls of active or inactive are those of the source. The rule behind the calls is not given here.
Key:
Variola virus [1] = assay: (§1) Antiviral activity against 1X10'8 PFU Variola virus Harper infected in cynomolgus monkey assessed as creatinine level in animal at 300 mg/kg/day, po administered immediately after infection followed by 5 ml/kg of 30% suspension of hydrated homogenized monkey biscuit measured 11 days post infection; assay type: functional
Variola virus [2] = assay: (§2) Antiviral activity against 1X10'8 PFU Variola virus Harper infected in cynomolgus monkey assessed as survival of animal at 300 mg/kg/day, po administered immediately post infection followed by 5 ml/kg of 30% suspension of hydrated homogenized monkey biscuit measured up to 28 days; assay type: functional, organism-based
Variola virus [3] = assay: Antiviral activity against 1X10'8 PFU Variola virus Harper infected in cynomolgus monkey assessed as temperature change in animal at 300 mg/kg/day, po administered immediately after infection followed by 5 ml/kg of 30% suspension of hydrated homogenized monkey biscuit measured 11 days post infection; assay type: functional
Monkeypox virus [4] = assay: Antiviral activity against Monkeypox virus Zaire '79 infected in cynomolgus monkey assessed as survival of monkey at 300 mg/kg/day, po administered 72 hrs post infection followed by 5 ml/kg of 30% suspension of hydrated homogenized monkey biscuit measured after 14 days; assay type: functional, organism-based
Monkeypox virus [5] = assay: Antiviral activity against Monkeypox virus Zaire '79 infected in cynomolgus monkey assessed as log decrease in viral load at 300 mg/kg/day, po administered 72 hrs post infection measured after 14 days; assay type: functional
Variola virus [6] = assay: as §1, with “alanine amino transferase” for “creatinine”, “1 day post” for “immediately after”; assay type: functional
Variola virus [7] = assay: (§3) Antiviral activity against 1X10'8 PFU Variola virus Harper infected in cynomolgus monkey assessed as temperature change in animal at 300 mg/kg/day, po administered 1 day post infection followed by 5 ml/kg of 30% suspension of hydrated homogenized monkey biscuit measured 11 days post infection; assay type: functional
Variola virus [8] = assay: (§4) Antiviral activity against 1X10'8 PFU Variola virus Harper infected in cynomolgus monkey assessed as total protein level in animal at 300 mg/kg/day, po administered 1 day post infection followed by 5 ml/kg of 30% suspension of hydrated homogenized monkey biscuit measured 11 days post infection; assay type: functional
Variola virus [9] = assay: as §1, with “total protein” for “creatinine”; assay type: functional
Variola virus [10] = assay: (§5) Antiviral activity against 1X10'8 PFU Variola virus Harper infected in cynomolgus monkey assessed as platelet count in animal at 300 mg/kg/day, po administered 1 day post infection followed by 5 ml/kg of 30% suspension of hydrated homogenized monkey biscuit measured 9 days post infection; assay type: functional
Variola virus [11] = assay: as §1, with “alanine amino transferase” for “creatinine”; assay type: functional
Variola virus [12] = assay: (§6) Antiviral activity against 1X10'8 PFU Variola virus Harper infected in cynomolgus monkey assessed as white blood cell count in animal at 300 mg/kg/day, po administered 1 day post infection followed by 5 ml/kg of 30% suspension of hydrated homogenized monkey biscuit measured 11 days post infection; assay type: functional
Variola virus [13] = assay: as §3, with “mean corpuscular hemoglobin concentration” for “temperature change”; assay type: functional
Variola virus [14] = assay: (§7) Antiviral activity against 1X10'8 PFU Variola virus Harper infected in cynomolgus monkey assessed as blood urea nitrogen level in animal at 300 mg/kg/day, po administered 1 day post infection followed by 5 ml/kg of 30% suspension of hydrated homogenized monkey biscuit measured 11 days post infection; assay type: functional
Monkeypox virus [15] = assay: Antiviral activity against Monkeypox virus Zaire '79 infected in cynomolgus monkey assessed as survival of monkey at 300 mg/kg/day, po administered 24 hrs post infection followed by 5 ml/kg of 30% suspension of hydrated homogenized monkey biscuit measured after 14 days; assay type: functional, organism-based
Variola virus [16] = assay: as §2, with “inhibition” for “survival”, “virus-mediated lesion formation” for “animal”, “between day 5” for “up”, “8” for “28 days”; assay type: functional, organism-based
Monkeypox virus [17] = assay: Antiviral activity against Monkeypox virus Zaire '79 infected in cynomolgus monkey assessed as log decrease in viral load at 300 mg/kg/day, po administered 24 hrs post infection followed by 5 ml/kg of monkey biscuit measured after 14 days; assay type: functional
Variola virus [18] = assay: Antiviral activity against 1X10'8 PFU Variola virus Harper infected in cynomolgus monkey assessed as decrease in blood viral load at 300 mg/kg/day, po administered 1 day post infection followed by 5 ml/kg of 30% suspension of hydrated homogenized monkey biscuit measured up to 28 days; assay type: functional, organism-based
Variola virus [19] = assay: (§8) Antiviral activity against 1X10'8 PFU Variola virus Harper infected in cynomolgus monkey assessed as survival of animal at 300 mg/kg/day, po administered 1 day post infection followed by 5 ml/kg of 30% suspension of hydrated homogenized monkey biscuit measured up to 28 days; assay type: functional, organism-based
Variola virus [20] = assay: Antiviral activity against 1X10'8 PFU Variola virus Harper infected in cynomolgus monkey assessed as platelet count in animal at 300 mg/kg/day, po administered 1 day post infection followed by 5 ml/kg of 30% suspension of hydrated homogenized monkey biscuit measured 11 days post infection; assay type: functional
Variola virus [21] = assay: as §8, with “inhibition” for “survival”, “virus-mediated lesion formation” for “animal”, “between day 5” for “up”, “8” for “28 days”; assay type: functional, organism-based
Variola virus [22] = assay: Antiviral activity against 1X10'8 PFU Variola virus Harper infected in cynomolgus monkey assessed as albumin level in animal at 300 mg/kg/day, po administered immediately after infection followed by 5 ml/kg of 30% suspension of hydrated homogenized monkey biscuit measured 11 days post infection; assay type: functional
Variola virus [23] = assay: Antiviral activity against 1X10'8 PFU Variola virus Harper infected in cynomolgus monkey assessed as decrease in blood viral load at 300 mg/kg/day, po administered immediately post infection followed by 5 ml/kg of 30% suspension of hydrated homogenized monkey biscuit measured up to 28 days; assay type: functional, organism-based
Variola virus [24] = assay: Antiviral activity against 1X10'8 PFU Variola virus Harper infected in cynomolgus monkey assessed as percent hematocrit level in animal at 300 mg/kg/day, po administered 3 days post infection followed by 5 ml/kg of 30% suspension of hydrated homogenized monkey biscuit measured 9 days post infection; assay type: functional
Monkeypox virus [25] = assay: Antiviral activity against Monkeypox virus Zaire '79 infected in cynomolgus monkey assessed as inhibition of virus induced skin lesions at 300 mg/kg/day, po administered 24 hrs post infection measured after 14 days; assay type: functional, organism-based
Variola virus [26] = assay: Antiviral activity against 1X10'8 PFU Variola virus Harper infected in cynomolgus monkey assessed as platelet count in animal at 300 mg/kg/day, po administered 3 days post infection followed by 5 ml/kg of 30% suspension of hydrated homogenized monkey biscuit measured 9 days post infection; assay type: functional
Monkeypox virus [27] = assay: Antiviral activity against Monkeypox virus Zaire '79 infected in cynomolgus monkey assessed as inhibition of virus induced skin lesions at 300 mg/kg/day, po administered 72 hrs post infection measured after 14 days; assay type: functional, organism-based
Variola virus [28] = assay: as §7, with “immediately after” for “1 day post”; assay type: functional
Variola virus [29] = assay: Antiviral activity against 1X10'8 PFU Variola virus Harper infected in cynomolgus monkey assessed as blood urea nitrogen level in animal at 300 mg/kg/day, po administered 3 days post infection followed by 5 ml/kg of 30% suspension of hydrated homogenized monkey biscuit measured 9 days post infection; assay type: functional
Variola virus [30] = assay: as §1, with “percent hematocrit” for “creatinine”; assay type: functional
Variola virus [31] = assay: Antiviral activity against 1X10'8 PFU Variola virus Harper infected in cynomolgus monkey assessed as log decrease in blood viral load at 300 mg/kg/day, po administered immediately post infection followed by 5 ml/kg of 30% suspension of hydrated homogenized monkey biscuit measured between day 5 to 8; assay type: functional
Variola virus [32] = assay: as §4, with “aspartate amino transferase” for “total protein”; assay type: functional
Variola virus [33] = assay: Antiviral activity against 1X10'8 PFU Variola virus Harper infected in cynomolgus monkey assessed as percent hematocrit level in animal at 300 mg/kg/day, po administered 1 day post infection followed by 5 ml/kg of 30% suspension of hydrated homogenized monkey biscuit measured 11 days post infection; assay type: functional
Variola virus [34] = assay: Antiviral activity against 1X10'8 PFU Variola virus Harper infected in cynomolgus monkey assessed as log decrease in blood viral load at 300 mg/kg/day, po administered 1 day post infection followed by 5 ml/kg of 30% suspension of hydrated homogenized monkey biscuit measured between day 5 to 8; assay type: functional
Variola virus [35] = assay: Antiviral activity against 1X10'8 PFU Variola virus Harper infected in cynomolgus monkey assessed as creatinine level in animal at 300 mg/kg/day, po administered 1 day post infection followed by 5 ml/kg of 30% suspension of hydrated homogenized monkey biscuit measured 9 days post infection; assay type: functional
Cynomolgus monkey [36] = assay: Immunostimulatory activity in cynomolgus monkey infected with 1X10'8 PFU Variola virus Harper assessed as level of IgG at 300 mg/kg/day, po followed by 5 ml/kg of 30% suspension of hydrated homogenized monkey biscuit measured on day 7 by ELISA; assay type: functional, organism-based; settings: Macaca fascicularis
Variola virus [37] = assay: as §1, with “aspartate amino transferase” for “creatinine”; assay type: functional
Variola virus [38] = assay: Antiviral activity against 1X10'8 PFU Variola virus Harper infected in cynomolgus monkey assessed as creatinine level in animal at 300 mg/kg/day, po administered 1 day post infection followed by 5 ml/kg of 30% suspension of hydrated homogenized monkey biscuit measured 11 days post infection; assay type: functional
Variola virus [39] = assay: Antiviral activity against 1X10'8 PFU Variola virus Harper infected in cynomolgus monkey assessed as albumin level in animal at 300 mg/kg/day, po administered 1 day post infection followed by 5 ml/kg of 30% suspension of hydrated homogenized monkey biscuit measured 11 days post infection; assay type: functional
Cynomolgus monkey [40] = assay: Immunostimulatory activity in cynomolgus monkey infected with 1X10'8 PFU Variola virus Harper assessed as level of IgM at 300 mg/kg/day, po followed by 5 ml/kg of 30% suspension of hydrated homogenized monkey biscuit measured on day 7 by ELISA; assay type: functional, organism-based; settings: Macaca fascicularis
Variola virus [41] = assay: Antiviral activity against 1X10'8 PFU Variola virus Harper infected in cynomolgus monkey assessed as platelet count in animal at 300 mg/kg/day, po administered immediately after infection followed by 5 ml/kg of 30% suspension of hydrated homogenized monkey biscuit measured 11 days post infection; assay type: functional
Variola virus [42] = assay: as §1, with “mean corpuscular hemoglobin concentration” for “creatinine level”; assay type: functional
Variola virus [43] = assay: as §5, with “mean corpuscular hemoglobin concentration” for “platelet count”; assay type: functional
Variola virus [44] = assay: Antiviral activity against 1X10'8 PFU Variola virus Harper infected in cynomolgus monkey assessed as white blood cell count in animal at 300 mg/kg/day, po administered 3 days post infection followed by 5 ml/kg of 30% suspension of hydrated homogenized monkey biscuit measured 9 days post infection; assay type: functional
Variola virus [45] = assay: as §6, with “immediately after” for “1 day post”; assay type: functional
Variola virus [46] = assay: as §1, with “[…]” for “creatinine”; assay type: functional
Variola virus [47] = assay: Antiviral activity against 1X10'8 PFU Variola virus Harper infected in cynomolgus monkey assessed as […] level in animal at 300 mg/kg/day, po administered 1 day post infection followed by 5 ml/kg of 30% suspension of hydrated homogenized monkey biscuit measured 11 days post infection; assay type: functional

O=C(NN1C(=O)[C@@H]2[C@@H]3C=C[C@@H]([C@H]4C[C@@H]34)[C@@H]2C1=O)c1ccc(C(F)(F)F)cc1 [TECOVIRIMAT]
Activity (Variola virus [1]): 0.73 mg/dL | Activity (Variola virus [2]): Active | Activity (Variola virus [3]): 38 °C | Activity (Monkeypox virus [4]): Active | FC (Monkeypox virus [5]): 5 | Activity (Variola virus [6]): 60.3 U/L | Activity (Variola virus [7]): 37.3 °C | Activity (Variola virus [8]): 6.43 g/dL | Activity (Variola virus [9]): 6.37 g/dL | Activity (Variola virus [10]): 350 ×10³ /uL | Activity (Variola virus [11]): 49.7 U/L | Activity (Variola virus [12]): 7.5 ×10³ /uL | Activity (Variola virus [13]): 31.1 g/dL | Activity (Variola virus [14]): 18.7 mg/dL | Activity (Monkeypox virus [15]): Active | inhibition (Variola virus [16]): Active | FC (Monkeypox virus [17]): 5 | Activity (Variola virus [18]): Active | Activity (Variola virus [19]): Active | Activity (Variola virus [20]): 341 ×10³ /uL | inhibition (Variola virus [21]): Active | Activity (Variola virus [22]): 2.47 g/dL | Activity (Variola virus [23]): Active | Activity (Variola virus [24]): 35.9% | Activity (Monkeypox virus [25]): Active | Activity (Variola virus [26]): 406 ×10³ /uL | Activity (Monkeypox virus [27]): Active | Activity (Variola virus [28]): 19 mg/dL | Activity (Variola virus [29]): 10.7 mg/dL | Activity (Variola virus [30]): 44.3% | FC (Variola virus [31]): 3 | Activity (Variola virus [32]): 58 U/L | Activity (Variola virus [33]): 49.6% | FC (Variola virus [34]): 3 | Activity (Variola virus [35]): 0.9 mg/dL | Activity (Cynomolgus monkey [36]): Active | Activity (Variola virus [37]): 55 U/L | Activity (Variola virus [38]): 0.7 mg/dL | Activity (Variola virus [39]): 2.9 g/dL | Activity (Cynomolgus monkey [40]): Active | Activity (Variola virus [41]): 329 ×10³ /uL | Activity (Variola virus [42]): 31.7 g/dL | Activity (Variola virus [43]): 30.9 g/dL | Activity (Variola virus [44]): 12.3 ×10³ /uL | Activity (Variola virus [45]): 8.2 ×10³ /uL | Activity (Variola virus [46]): 277 U/L | Activity (Variola virus [47]): 141 U/L
